Measurements as given in patent US9168297B2, “Regulation of skin pigmentation by neuregulin-1 (NRG-1)” (The United States of America, as Represented by the …, priority 2010, dated 2015).
Residues, ends and D or L forms follow the SMILES beside them. *: point of attachment. Cbz = O=C(OCc1ccccc1)*

Tests used:
[1] = test system: MelanoDerm Skin Model; experiment: Melanogenesis in MelanoDerm skin model, L-[14C]tyrosine assay; type: cell-based, human; settings: 30 μM lipoic acid, positive control, means ± SEM, Control 100%
Description: Fibroblasts regulate the distinctive pigmented and thick morphology of skin on the palms and soles compared to the remainder of the body via a factor they secrete termed DKK1. […] [table]

[2] = test system: HEM-DP melanocytes; experiment: Melanin content assay (melanin/protein); type: cell-based, human; settings: for Pigmentation: 8-mer peptides 100 nM, every day for 9 days, vs vehicle
Protocol: FIGS. 6A and 6B are bar graphs illustrating the effect of NRG-1 on the pigmentation of cultured human melanocytes. FIG. 6A) Lightly-pigmented (HEM-LP) and FIG. 6B) Darkly-pigmented (HEM-DP) melanocytes were treated with or without NRG-1 (50 ng/ml) for 1, 3, 5 or 9 days and proteins were extracted from each sample. After centrifugation at 10,000 g for 15 minutes, precipitates were analyzed for melanin content, and the supernatants were analyzed for protein content. Results are the average of three studies±SD; statistically significant differences are indicated.
FIGS. 9A and 9B are digital images illustrating the effect of pan-ERBB inhibitors on NRG-1 action on human melanocytes and MelanoDerms. FIG. 9A) HEM-DP melanocytes were treated for 9 days with 50 ng/ml NRG-1 in the presence of C39 (0.5 μM) or CI-1033 (2 μM) or vehicle (DMSO) alone. The results are the averages of 3 independent studies±SD. FIG. 9B) Dark MelanoDerms were treated for 9 days with 50 ng/ml NRG-1 in the presence of C39 (0.5 μM) or CI-1033 (2 μM) or vehicle (DMSO) alone. L values shown are the average of 3 spots measured in the center of each Melanoderm.
Melanin contents were determined by dissolving cell pellets overnight at room temperature in 200 μl 1 N NaOH, and melanin concentrations were quantitated by absorbance at 405 nm in a SpectraMax 250 ELISA reader (Molecular Devices) using a standard curve generated from synthetic melanin (Sigma-Aldrich, St. Louis, Mo.). Melanin content is expressed as μg melanin per μg protein. Each study was repeated at least three times.
The effects of NRG-1 on the pigmentation of human melanocytes were also examined. […] However, on day 9, when the cells had reached confluence, the pigmentation level of NRG-1-treated HEM-LP melanocytes was about 35% higher than the control (FIG. 6A).
The EGF domain of NRG-1 can activate the NRG-1 receptors. Two exemplary EGF domains of NRG-1 were aligned (SEQ ID NOs: 9 and 10) and 5 different […] peptides within these two sequences were designed (FIG. 12). Darkly-pigmented human epidermal melanocytes (HEM-DP) were treated with each of the […] peptides (100 nM) or the commercially available rhNRG-1 (6.25 nM) or the vehicle only (0.1% BSA in PBS) every other day for 7 days.
In particular, HEM-DP were treated with each of the 8-mer peptides (WC-6, […], amino acids 3-10 of SEQ ID NO: 10; WC-7, […], amino acids 8-15 of SEQ ID NO: 10; WC-8, […], amino acids 12-19 of SEQ ID NO: 10; WC-9, […], amino acids 16-23 of SEQ ID NO: 10; WC-10, […], amino acids 20-27 of SEQ ID NO: 10; 100 nM) or the full length EGF domain of NRG-1 (WC-11, SEQ ID NO: 10, 100 nM) or the commercially available rhNRG-1 (SEQ ID NO: 11, 6.25 nM) or vehicle only (0.1% BSA in PBS) every day for 9 days.

[3] = test system: MelanoDerm 3-D reconstructed human skin; experiment: Pigmentation of 3-D reconstructed skin (MelanoDerm), L value and microscopy; type: cell-based; settings: dark MelanoDerms, 9 days, NRG-1 50 ng/ml with C39 0.5 μM or CI-1033 2 μM, vs control
Protocol: Light, Medium, and Dark human epidermal equivalents (MelanoDerm®) were purchased from MatTek Corp. (Ashland, Mass.). MelanoDerms were grown at the air/liquid interface of the maintenance medium MEL-LLMM (MatTek Corp.), and the culture medium was renewed every 2 days. Where noted, MelanoDerms were treated for 9 days with 50 ng/ml NRG-1 (rhNRG-1-β1, R&D Systems, Minneapolis, Minn.) prepared in phosphate-buffered saline (PBS) with 0.1% bovine serum albumin (BSA) and MelanoDerm maintenance medium. The same concentrations of PBS and BSA were used for mock-treated controls.
For the studies where the MelanoDerms were treated with NRG-1 and/or various pan-ERBB inhibitors, Dark MelanoDerms were first incubated with a pan-ERBB inhibitor (0.5 μM Compound 39, EMD Chemicals, Gibbistown, N.J. or 2 μM CI-1033, Selleck Chemicals LLC, US) for 30 minutes or with vehicle (DMSO) only before treatment with 50 ng/ml NRG-1; identical amounts of DMSO (0.02%) were added to all samples. Treatment was renewed every 2 days in fresh medium and was continued for 9 days.
Three dimensional (3-D) reconstructed human skin models (termed MelanoDerms) were used to test the effects of NRG-1 on skin pigmentation. Three types of MelanoDerm, ‘light’ ([…]), ‘medium’ ([…]) and ‘dark’ ([…]), were used to compare the effects of NRG-1 on those three types of skin. In preliminary studies to optimize the concentration of NRG-1 (from 10 to 200 ng/ml were tested, FIG. 10), 50 ng/ml was chosen which was consistent with concentrations of NRG-1 used for other cell types by other groups. NRG-1 was added to the MelanoDerm media at 50 ng/ml and the medium was replenished every 2 days. On day 9, the MelanoDerms treated with NRG-1 were compared to controls treated only with vehicle. Pigmentation of the skin was assessed using the L value, higher L values indicating lighter colors. […] It should be noted that relatively small changes in ΔL can represent relatively large changes in visible skin color. For example, the mean L value of White/Caucasian skin is 67, that of Asians, Pacific-Islanders is 65, that of Hispanic/Latinos is 64, and that of American Indian/Alaska Native is 62. […] In the vehicle-treated control MelanoDerms, melanin pigment was more evenly distributed throughout the entire epidermis and no visible melanin accumulation was observed around melanocytes (FIG. 3B). […] Therefore, NRG-1 leads to visible increases in pigmentation in the MelanoDerms which was greater as the skin had more constitutive pigmentation.

[4] = test system: ERBB2; experiment: ERBB2 protein level by western blotting in melanocytes; type: cell-based, human; settings: HEM-LP and HEM-DP, NRG-1 50 ng/ml together with MG132 120 nM
Protocol: FIGS. 7A and 7B are digital images illustrating expression of ERBBs after NRG-1 treatment. FIG. 7A) HEM-LP and HEM-DP melanocytes were treated with or without NRG-1 (50 ng/ml) for 5 days, and levels of ERBB2, ERBB3 or ERBB4 were detected by western blotting. Results shown are representative of three studies. FIG. 7B) Expression of ERBB2 was examined in HEM-LP and in HEM-DP melanocytes after 1 or 9 days or treatment with NRG-1 compared to vehicle-treated controls; the results are representative of two independent studies.
FIGS. 8A and 8B are digital images illustrating the mechanism of ERBB2 abrogation after NRG-1 treatment. FIG. 8A) ERBB2 mRNA levels in HEM-LP and in HEM-DP melanocytes were detected by RT-PCR after treatment with or without NRG-1 (50 ng/ml) for 1 day. FIG. 8B) MG132 (120 nM) was added to the melanocyte culture medium to inhibit proteasomal degradation during treatment of HEM-LP and HEM-DP melanocytes with or without NRG-1 (50 ng/ml). Proteins were extracted for each sample, and ERBB2 levels were detected by western blotting. Results are representative of three studies.
Fibroblast cultures in 100-mm dishes were solubilized in appropriate volumes of M-PER mammalian protein extraction reagent (Pierce Biotechnology, Rockford, Ill.) containing a Protease Inhibitor mixture (Roche, Mannheim, Germany) and phosphatase inhibitors. The protein concentration of each extract was measured using a BCA protein assay kit (Pierce, Rockford, Ill.). Cell extracts (20 μg) were separated on 8-16% gradient SDS polyacrylamide gels (Invitrogen, Carlsbad, Calif.), after which proteins were transferred to PVDF membranes (Invitrogen, Carlsbad, Calif.). Membranes were blocked for 1 hour in PBS or Tris buffered saline (TBS) containing 0.1% Tween 20 and 5% (w/v) nonfat dry milk powder and were incubated overnight at 4° C. with the primary antibody in PBS containing 0.1% Tween 20 and 2.5% (w/v) nonfat dry milk powder or in 0.1% Tween-TBS with 5% BSA, depending on the antibody. The following primary antibodies were used: anti-human DKK-1 (0.2 μg/ml), anti-human DKK-3 (0.1 μg/ml), anti-human bFGF (0.1 μg/ml), anti-human SCF (0.1 μg/ml), anti-human mouse monoclonal ERBB3 (1 μg/ml) and anti-human mouse monoclonal ERBB4 (2 μg/ml) antibodies from R&D Systems, neuregulin-1α/β1/2 (C-20) (1:500) and GAPDH (FL-335) (1:10,000) antibodies from Santa Cruz Biotechnology, ERBB2 rabbit monoclonal (1:1000) and phospho-Akt (Ser473) (1:1000) antibodies from Cell Signaling Technology. Membranes were then incubated with an HRP-linked anti-rabbit antibody (GE Healthcare) at 1:10,000 dilution or with an anti-goat antibody (DAKO) at 1:2,000 dilution at room temperature for 1 hour. Antigen-antibody complexes were detected using an ECL-plus Western blotting detection system (GE Healthcare). […]

Q: With `O=C(O)CCCC[C@@H]1CCSS1` (racemic) [Lipoic acid, lipoic acid] as the molecule, how does the Melanogenesis [1] read?
A: 2 ± 2%

Q: Which “Melanin content, inhibitor alone” value ([2]; 9 days, C39 0.5 μM or CI-1033 2 μM alone) does the source give for `C=CC(=O)Nc1cc2c(Nc3ccc(F)c(Cl)c3)ncnc2cc1OCCCN1CCOCC1` [CI-1033, reference compound] here?
A: did not affect

Q: And the “Melanin content, NRG-1 in the presence of ERBB inhibitor” value ([2]; 9 days, NRG-1 50 ng/ml with C39 0.5 μM or CI-1033 2 μM)?
A: remained at the same level as the control

Q: And the “Pigmentation of MelanoDerms, NRG-1 in the presence of ERBB inhibitor” value [3]?
A: did not increase the pigmentation

Q: For `CC(C)C[C@@H](C=O)NC(=O)[C@H](CC(C)C)NC(=O)[C@H](CC(C)C)NC(=O)OCc1ccccc1` [MG132, reference compound] (Cbz-Leu-Leu-Leu-aldehyde), which “Level of ERBB2 protein” value [4] is on record?
A: returned to the control level

Q: Which “Pigmentation (melanin) compared to control” value ([2]; 16-mer peptides 100 nM, every other day for 7 days, n=4) does the source give for “WC-03: 16-mer NRG-1 peptide including amino acids 8-23 of SEQ ID NO: 9 (FMVKDLSNPSRYLCKC)” here?
A: highest increase in pigmentation

Q: For “WC-9: 8-mer peptide PSRYLCKC, amino acids 16-23 of SEQ ID NO: 10”, which Pigmentation [2] is on record?
A: statistically significant increases of pigmentation

Q: How did the Pigmentation [2] turn out when “WC-10: 8-mer peptide LCKCPNEF, amino acids 20-27 of SEQ ID NO: 10” was run?
A: statistically significant increases of pigmentation
